Results published in patent US20150150843A1, “CARDIOPROTECTIVE COMPOUNDS, THEIR USE WITH CHEMOTHERAPY, AND METHODS FOR IDENTIFYING THEM” (priority 2012, published 2015).
Marks after values point to notes of the source that are not given here.

What was measured:
[1] = system: neonatal rat cardiomyoyte; assay: Doxorubicin-induced apoptosis in neonatal rat cardiomyocyte; type: cell-based
tumor line MCF7 = assay: Doxorubicin-induced apoptosis in tumor line MCF7; type: cell-based, human
Procedure: (§1) Cardiomyocyte line HL-1 was derived from mouse atrium tumor. Culturing conditions were previously published (Claycomb et al., Proc. Natl. Acad. Sci. USA, 95, 2979, 1998). HL 1 was cultured with Claycomb medium (Sigma) supplemented with fetal bovine serum (FBS), penicillin/streptomycin, L-glutamine and norepinephrine. DU145 and LNCaP are human prostate tumor lines, while MCF7 is a human breast cancer line. DU145 and MCF7 were cultured with high glucose DMEM (Life Sciences) supplemented with penicillin/streptomycin and L-glutamine, and LNCaP was grown in RPMI-1640 (Life Sciences) plus penicillin/streptomycin and L-glutamine. […] Apoptosis indices were quantified as percentage of AnnexinV positive cells. All experiments were done at least three times, and the statistics were obtained by Student T-test.

zebrafish heart = assay: Doxorubicin-induced heart failure model in zebrafish (heart contraction, tail circulation, morphology, fractional shortening); type: in vivo
Procedure: For screening, about 400 nl of small molecule stock solution was transferred from 96-well format library plates to fish plate with transfer pins. At dpf 3, treated fish were screened under inverted fluorescent microscope (100×) for heart contraction and tail circulation.
Zebrafish have been used successfully for high-throughput screening (HTS) to identify chemical compounds that suppress genetic defects and other disease states (Peterson et al., Methods Cell. Biol. 105, 525-541, 2011). Compared to cell-based in vitro systems, in vivo screening offers several advantages, including the ability to discover compounds with therapeutic activity even without knowing their molecular targets. In addition, compounds discovered by in vivo screening are selected for their ability to be effective in the complex context of the disease of interest. […] Heart contraction was dramatically compromised, resulting in the absence of blood cell circulation within tail blood vessels. Using a high-speed camera and a custom analysis algorithm, we were able to calculate the fractional shortening of the zebrafish hearts. […] Therefore, the zebrafish model appears to recapitulate several key aspects of the doxorubicin-induced heart failure seen in humans, including increased apoptosis and reduced contractility. Because the doxorubicin-induced changes in cardiac function and blood circulation are easily detected visually, they formed the basis of an assay to identify small molecules suppressing doxorubicin-induced cardiotoxicity.
Hearts were surgically removed and briefly fixed with 4% paraformaldehyde (PFA) for 20 minutes at room temperature. The fixed heart samples were embedded in mounting medium and flattened with slide and coverslip. Confocal images were captured from the flattened hearts, and red nuclei were counted. All experiments were done at least three times, and the statistics were obtained by Student T-test.
In order to confirm and quantify the activity of compounds with cardioprotective properties identified in the preceding assays, a high-resolution assay of cardiac function, described by Shin et al. (Physiol Genomics. 2010 July; 42(2): 300-309), can be used to measure heart fractional shortening.

mouse cardiac sections = assay: TUNEL apoptosis assay in hearts of doxorubicin-treated mice; type: in vivo; settings: one day
Procedure: To determine if the ability of VIS and DPU to protect cardiomyocytes from apoptosis was conserved in mammals, we treated mice with doxorubicin with or without co-treatment with VIS or DPU. One day later, hearts were collected for apoptosis assays using TUNEL (Supplement FIG. 1b). […] Therefore, VIS and DPU appear to prevent doxorubicin-induced cardiac apoptosis in both zebrafish and mice.
One day after injection, hearts were collected and fixed with 4% PFA at 4° C. overnight and then were subjected to paraffin embedding and sectioning. The heart sections were stained using the TMR TUNEL kit (Roche) following the manufacturer's protocol. The stained sections were scanned with MetaMorph-assisted slide scanning microscopy, and apoptosis indices were quantified as TUNEL positive cell/mm^2. All experiments were done at least three times, and the statistics were obtained by Student T-test.

cardiomyocyte HL1 = assay: CellTiter Glo viability of doxorubicin-treated HL1; type: cell-based, mouse; settings: VIS and DPU at 20 μM
Procedure: (§2) Cardiomyocyte line HL-1 was derived from mouse atrium tumor. Culturing conditions were previously published (Claycomb et al., Proc. Natl. Acad. Sci. USA, 95, 2979, 1998). HL 1 was cultured with Claycomb medium (Sigma) supplemented with fetal bovine serum (FBS), penicillin/streptomycin, L-glutamine and norepinephrine. DU145 and LNCaP are human prostate tumor lines, while MCF7 is a human breast cancer line. DU145 and MCF7 were cultured with high glucose DMEM (Life Sciences) supplemented with penicillin/streptomycin and L-glutamine, and LNCaP was grown in RPMI-1640 (Life Sciences) plus penicillin/streptomycin and L-glutamine. […] All experiments were done at least three times, and the statistics were obtained by Student T-test.

[2] = system: JNK phosphorylation in HL 1 cells; assay: JNK phosphorylation western blot in HL 1 cells; type: cell-based, mouse
From the text: (§3) In an effort to identify pathways involved in VIS and DPU mediated cardioprotection, we screened a panel of kinases by western blotting. […] To confirm the cardiomyocyte-specific inhibition of JNK signaling, we used a luciferase-based AP1 reporter assay to detect JNK activation in HL 1 and DU145 cells.
Blots were quantified by densitometry with Image J. All experiments were done at least three times, and the statistics were obtained by Student T-test.

[3] = system: JNK phosphorylation in DU145 cells; assay: JNK phosphorylation western blot in DU145 cells; type: cell-based, human
From the text: as §3

[4] = system: JNK responsive reporter AP-1 in DU145 cells; assay: AP-1 luciferase reporter assay in DU145 cells; type: cell-based, human; settings: doxorubicin-treated
From the text: as §3

tumor line LNCaP = assay: Doxorubicin-induced apoptosis in tumor line LNCaP; type: cell-based, human
Procedure: as §1

zebrafish cardiomyocytes = assay: TUNEL staining of apoptotic cardiomyocytes in doxorubicin-treated zebrafish; type: in vivo
Procedure: Because cardiomyocyte apoptosis plays a critical role in mediating doxorubicin-induced cardiomyopathy, we sought to determine if VIS Aand DPU attenuate heart failure by inhibiting cardiomyocyte apoptosis.
Hearts were surgically removed and fixed with 4% paraformaldehyde (PFA) for 20 minutes at room temperature. After staining with an in situ TUNEL kit (Roche), heart samples were embedded in mounting medium and flattened with slide and coverslip, and then subjected to confocal microscopy. The data were quantified as percentage of TUNEL positive cardiomyocytes. All experiments were done at least three times, and the statistics were obtained by Student T-test.

[5] = system: prostate tumor cell DU145; assay: CellTiter Glo viability of doxorubicin-treated DU145; type: cell-based, human; settings: VIS and DPU at 20 μM
Procedure: as §2

[6] = system: caspases 3, 8 and 9 in cardiomyocyte; assay: Caspase 3, 8 and 9 activity (fluorogenic substrates) in cardiomyocyte; type: cell-based
Procedure: We also examined effects of the compounds on apoptosis (via TUNEL staining) in cardiomyocytes and tumor cells.
Specific activity of caspases 3, 8 and 9 were assessed semi-quantitatively using the corresponding fluorogenic substrates following manufacturer's protocols (R&D Systems). All experiments were done at least three times, and the statistics were obtained by Student T-test.

[7] = system: JNK responsive reporter AP-1 in HL 1 cells; assay: AP-1 luciferase reporter assay in HL 1 cells; type: cell-based, mouse; settings: doxorubicin-treated
From the text: as §3

cardiomyoyte HL1 = assay: AnnexinV apoptosis assay in cardiomyocyte HL1; type: cell-based, mouse
Procedure: as §1

tumor line DU145 = assay: Doxorubicin-induced apoptosis in tumor line DU145; type: cell-based, human
Procedure: as §1

mouse heart function [8] = assay: Acute doxorubicin-induced HF model in mice, echocardiography; type: in vivo; settings: five days
Procedure: Five days after the initial injection, we assessed heart function by M mode echocardiogram.
Strain C57BL/6 male mice between 8-10 weeks of age were purchased from Charles River Laboratories. […] In the control group, plain vehicle and saline were injected instead. Five days later, injected mice were subjected to echocardiography. Five days after treatment, transthoracic echocardiographic images were obtained and interpreted by an echocardiographer blinded to the experimental design using a 13.0-MHz linear probe (Vivid 7; GE Medical System, Milwaukee, Wis.) as described (Zou et al., Crit. Care Med. 38, 1335-1342, 2010; Neilan et al., Eur. Heart J. 27, 1868-1875, 2006). Mice were lightly anesthetized with ketamine (20 mg/kg). M-mode images were obtained from a parasternal short-axis view at the midventricular level with a clear view of papillary muscle. Tissue Doppler imaging was collected at a frame rate of 483 frames per second and a depth of 1 em. LV end-diastolic internal diameter (LVIDd) and LV end systolic internal diameter (LVIDS) were measured. Fractional shortening (FS) was defined as [(LVIDd−LVIDS)/LVIDd]. Strain rate of the posterior wall was analyzed offline in an EchoPAC workstation (GE Healthcare, Wauwatosa, Wis.). A region of interest (axial distance, 0.2 mm; width, 0.6 mm) was manually positioned in the middle of the posterior wall. A strain length of 0.5 mm was used. Peak systolic strain rate was measured. The temporal smoothing filters were turned off for all measurements. The values of three consecutive cardiac cycles were averaged.

mouse heart function [9] = assay: Chronic low-dose doxorubicin treatment in mice, echocardiography; type: in vivo; settings: low doses of doxorubicin 5 times over 5 weeks
From the text: Labels: DMSO: DMSO-treated control samples; Dox: doxorubicin-treated samples; Dox+VIS: doxorubicin and VIS co-treated samples; Dox+DPU: doxorubicin and DPU co-treated samples.

[10] = patients; cited from earlier work
[11] = zebrafish treated with doxorubicin
[12] = mice, 15 mg/kg doxorubicin IP, with or without 25 mg/kg VIS IP, mean ± SEM

COc1c2ccoc2cc2oc(C)cc(=O)c12 [VIS, visnagin]
doxorubicin-induced apoptosis, AnnexinV staining [1]: inhibit doxorubicin-induced apoptosis | doxorubicin-induced apoptosis, TUNEL staining [1]: inhibit doxorubicin-induced apoptosis | doxorubicin-induced apoptosis (tumor line MCF7): do not reduce doxorubicin-induced apoptosis | cardiac contractility as measured by fractional shortening (zebrafish heart; [11]): completely rescued cardiac contractility | overt morphological effects of doxorubicin on the heart (ventricular compaction, pericardial edema) (zebrafish heart; [11]): prevented the overt morphological effects of doxorubicin on the heart | doxorubicin-induced apoptosis in mouse heart (TUNEL) (mouse cardiac sections; 15 mg/kg doxorubicin plus 25 mg/kg visnagin or 10 mg/kg diphenylurea IP): significantly decreased doxorubicin-induced apoptosis | viability of doxorubicin-treated cardiomyocyte HL1 (cardiomyocyte HL1): increase viability | doxorubicin-induced JNK phosphorylation [2]: inhibit doxorubicin-induced JNK phosphorylation | doxorubicin-induced JNK phosphorylation [3]: do not inhibit doxorubicin-induced JNK phosphorylation | AP-1 luciferase activity [4]: not repressed | doxorubicin-induced apoptosis (tumor line LNCaP): do not reduce doxorubicin-induced apoptosis | number of apoptotic cardiomyocytes induced by doxorubicin (TUNEL) (zebrafish cardiomyocytes; 100 μM doxorubicin plus 20 μM rescue compound, two days): greatly reduced the number of apoptotic cardiomyocytes | viability of doxorubicin-treated prostate tumor cell DU145 [5]: do not increase viability | activity of caspases 3, 8 and 9 activated by doxorubicin [6]: inhibited | AP-1 luciferase activity [7]: repressed | doxorubicin-induced apoptosis, AnnexinV staining (cardiomyoyte HL1): reduce doxorubicin-induced apoptosis | doxorubicin-induced apoptosis (tumor line DU145): do not reduce doxorubicin-induced apoptosis | fractional shortening and strain rate compared to mice treated with doxorubicin alone (mouse heart function [8]; 25 mg/kg VIS immediately prior to 15 mg/kg doxorubicin IP): significant improvement | doxorubicin-induced reduction of fractional shortening (mouse heart function [9]): partially reversed the reduction | doxorubicin-induced reduction of strain rate (mouse heart function [9]): partially reversed the reduction

COc1cccc2c1C(=O)c1c(O)c3c(c(O)c1C2=O)C[C@@](O)(C(=O)CO)C[C@@H]3O[C@H]1C[C@H](N)[C@H](O)[C@H](C)O1 [doxorubicin]
atrium and ventricle cardiomyocyte numbers compared to controls (zebrafish heart; 100 μM doxorubicin for two days, cmlc2-dsRed line): significantly reduced | heart rate and contractility (zebrafish heart; 100 μM doxorubicin from 1 dpf, assessed at 3 dpf): dramatically reduced | pericardial edema (zebrafish heart; 100 μM doxorubicin from 1 dpf, two days exposure): extensive pericardial edema | increase in apoptosis in mouse cardiac sections (TUNEL) (mouse cardiac sections; 15 mg/kg doxorubicin IP): 3- to 4 fold | increase in apoptotic cardiomyocytes (TUNEL) (zebrafish cardiomyocytes; doxorubicin 100 μM, 4 dpf zebrafish): four-fold increase | cumulative dosages that exponentially increase the risk of heart failure [10]: above 450 mg/m^2 | FS (mouse heart function [8]; [12]): 44 ± 2 % | HR (mouse heart function [8]; [12]): 609 ± 23 beats/min | LVIDs (mouse heart function [8]; [12]): 1.78 ± 0.10 mm | Strain Rate (mouse heart function [8]; [12]): 16 ± 1*** 1/sec
